Test results as given in ChEMBL document CHEMBL5096164, “In Vivo Profiling of a Natural Alkaloid, Anatabine, in Rodents: Pharmacokinetics and Anti-Inflammatory Efficacy” (J Nat Prod, 2021).
Calls of active or inactive are those of the source. The rule behind the calls is not given here.

Legend:
[1] = Clearance in Wistar rat plasma at 2 mg/kg, iv administered as bolus dose measured after 5 to 360 mins by LC-MS/MS analysis; type: ADME, organism-based; conditions: time 5-360 min
[2] = AUC in rat at 0.40 mg/kg via inhalation; type: ADME, organism-based; parameters: dose 0.4 mg/kg, route inh; conditions: in vivo, inhaled or intranasal, 0.4 mg/kg
[3] = Clearance in Wistar rat plasma at 5 mg/kg, ip administered as bolus dose measured after 5 to 360 mins by LC-MS/MS analysis; type: ADME, organism-based; conditions: time 5-360 min
[4] = Cmax in rat at 0.06 mg/kg via inhalation; type: ADME, organism-based; parameters: dose 0.06 mg/kg, route inh; conditions: in vivo, inhaled or intranasal
Mus musculus [5] = test: Antiinflammatory activity LPS induced mouse model assessed as reduction in IL-1 beta at 1 to 5 mg/kg, ip preincubated for 1 hr followed by LPS stimulation and measured after 2 hrs by luminex xMAP bead based assay; type: functional, organism-based; conditions: dose 1-5 mg/kg, time 3.0 hrs
[6] = AUC in Wistar rat plasma at 2 mg/kg, iv administered as bolus dose measured after 5 to 360 mins by LC-MS/MS analysis; type: ADME, organism-based; parameters: time lower 5 min, dose 2 mg/kg, time upper 360 min, route iv
[7] = AUC in rat at 2.73 mg/kg via inhalation; type: ADME, organism-based; parameters: dose 2.73 mg/kg, route inh; conditions: in vivo, inhaled or intranasal
[8] = Cmax in Wistar rat plasma at 2 mg/kg, iv administered as bolus dose measured after 5 to 360 mins by LC-MS/MS analysis; type: ADME, organism-based; parameters: dose 2 mg/kg, time upper 360 min, time lower 5 min, route iv
[9] = Tmax in Wistar rat plasma at 2 mg/kg, iv administered as bolus dose measured after 5 to 360 mins by LC-MS/MS analysis; type: ADME, organism-based; conditions: time 5-360 min
[10] = Drug uptake in rat aerosol at medium dose via inhalation measured for 30 mins; type: ADME; conditions: in vivo, inhaled_or_intranasal, 0.5 h, route inh
[11] = Tmax in C57BL/6 plasma at 2 mg/kg, ip measured after 3 to 240 mins by LC-MS/MS analysis; type: ADME, organism-based; conditions: C57BL/6, mouse, time 3-240 min
[12] = Half life in C57BL/6 mouse brain at 2 mg/kg, ip measured after 3 to 240 mins by LC-MS/MS analysis; type: ADME, organism-based; conditions: time 3-240 min
Mus musculus [13] = test: Antiinflammatory activity ip/LPS induced mouse model assessed as reduction in IL-6 level in plasma preincubated for 1 hr followed by LPS stimulation and measured after 2 hrs by ELISA method; type: functional, organism-based; conditions: dose 1-5 mg/kg, time 3.0 hrs, DDE = dose-dependent effect
[14] = Half life in rat at 0.06 mg/kg via inhalation; type: ADME, organism-based; conditions: in vivo, inhaled or intranasal, route inh
[15] = Antiinflammatory activity in MOG (35 to 55 residues)-induced experimental autoimmune encephalomyelitis mouse aerosol assessed as reduction in clinical score at 25 microg/L measured on 15 day (reference value: 1.9); type: ADME; conditions: inhaled_or_intranasal, 360 h, dose 25 µg/L
[16] = AUC in C57BL/6 plasma at 2 mg/kg, ip measured after 3 to 240 mins by LC-MS/MS analysis; type: ADME, organism-based; parameters: time 3-240 min, dose 2 mg/kg, route ip; conditions: C57BL/6, mouse
Mus musculus [17] = test: Antiinflammatory activity LPS induced mouse model assessed as reduction in IL-9 at 1 to 5 mg/kg, ip preincubated for 1 hr followed by LPS stimulation and measured after 2 hrs by luminex xMAP bead based assay; type: functional, organism-based; conditions: dose 1-5 mg/kg, time 3.0 hrs
[18] = Drug uptake in MOG (35 to 55 residues)-induced experimental autoimmune encephalomyelitis mouse aerosol at 50 microg/L by LC-MS/MS analysis; type: ADME; conditions: in vivo, inhaled_or_intranasal, dose 50 µg/L
Rattus norvegicus [19] = test: Antiinflammatory activity in carrageenan-induced paw edema rat model assessed as inhibition of paw swelling at 5.34 mg/kg via inhalation measured at 2 hrs relative to control; type: functional; parameters: scale not given: the % may be the effect or the level left; conditions: route inh
Rattus norvegicus [20] = test: Antiinflammatory activity in carrageenan-induced paw edema rat model assessed as recovery of adverse effect at tremor at 5 mg/kg, ip or 20 mg/kg administered daily via whole body inhalation; type: functional, organism-based
[21] = Clearance in C57BL/6 mouse plasma at 2 mg/kg, ip measured after 3 to 240 mins by LC-MS/MS analysis; type: ADME, organism-based; conditions: time 3-240 min
[22] = Antiinflammatory activity in MOG (35 to 55 residues)-induced experimental autoimmune encephalomyelitis mouse aerosol assessed as reduction in clinical score at 25 microg/L measured on 16 day (reference value: 2.0); type: ADME; conditions: inhaled_or_intranasal, 384 h, dose 25 µg/L
[23] = Bioavailability in Wistar rat plasma at 1 mg/kg, iv administered as bolus dose measured after 5 to 360 mins by LC-MS/MS analysis; type: ADME, organism-based; conditions: in vivo, time 5-360 min
[24] = Drug uptake in MOG (35 to 55 residues)-induced experimental autoimmune encephalomyelitis unimmunized mouse in plasma at 50 microg/L by LC-MS/MS analysis; type: ADME; conditions: dose 50 µg/L
[25] = Drug concentration in carrageenan-induced paw edema in rat respiratory tract at 254.3 microg/L via inhalation measured for 60 mins; type: ADME; conditions: inhaled or intranasal, route inh, dose 254.3 µg/L, read-out: Drug uptake
[26] = Drug uptake in rat aerosol at 2.5 microg/L via inhalation measured for 30 mins; type: ADME; conditions: in vivo, inhaled_or_intranasal, 0.5 h, route inh, dose 2.5 µg/L
[27] = Clearance in Wistar rat plasma at 1 mg/kg, iv administered as bolus dose measured after 5 to 360 mins by LC-MS/MS analysis; type: ADME, organism-based; conditions: in vivo, time 5-360 min
[28] = Volume of distribution at steady state in Wistar rat plasma at 1 mg/kg, iv administered as bolus dose measured after 5 to 360 mins by LC-MS/MS analysis; type: ADME, organism-based; conditions: time 5-360 min, read-out: Vdss
Mus musculus [29] = test: Antiinflammatory activity LPS induced mouse model assessed as reduction in IL-5 at 1 to 5 mg/kg, ip preincubated for 1 hr followed by LPS stimulation and measured after 2 hrs by luminex xMAP bead based assay; type: functional, organism-based; conditions: dose 1-5 mg/kg, time 3.0 hrs
Mus musculus [30] = test: Antiinflammatory activity LPS induced mouse model assessed as reduction in IL-7 at 1 to 5 mg/kg, ip preincubated for 1 hr followed by LPS stimulation and measured after 2 hrs by luminex xMAP bead based assay; type: functional, organism-based; conditions: dose 1-5 mg/kg, time 3.0 hrs
[31] = Ratio of Cmax in C57BL/6 mouse brain to plasma at 2 mg/kg, ip measured after 3 to 240 mins by LC-MS/MS analysis; type: ADME, organism-based; conditions: brain and plasma, time 3-240 min, read-out: BPR
Rattus norvegicus [32] = test: Antiinflammatory activity in carrageenan-induced paw edema rat model assessed as inhibition of paw swelling at 5 mg/kg, ip measured at 2 hrs relative to control; type: functional; parameters: scale not given: the % may be the effect or the level left
[33] = Cmax in Wistar rat plasma at 5 mg/kg, ip administered as bolus dose measured after 5 to 360 mins by LC-MS/MS analysis; type: ADME, organism-based; parameters: dose 5 mg/kg, time upper 360 min, time lower 5 min, route ip
[34] = Half life in rat at 0.40 mg/kg via inhalation; type: ADME, organism-based; conditions: in vivo, inhaled or intranasal, route inh, dose 0.4 mg/kg
Mus musculus [35] = test: Antiinflammatory activity LPS induced mouse model assessed as reduction in macrophage inflammatory protein-1 beta at 1 to 5 mg/kg, ip preincubated for 1 hr followed by LPS stimulation and measured after 2 hrs by luminex xMAP bead based assay; type: functional, organism-based; conditions: dose 1-5 mg/kg, time 3.0 hrs
Mus musculus [36] = test: Antiinflammatory activity in ip induced Wistar mouse model of carrageenan-induced paw edema assessed as reduction in paw thickness administered 10 mins prior to carrageenan induction and measured upto 5 hrs; type: functional, organism-based; conditions: dose 1-5 mg/kg, time 310.0 min, DDE = dose-dependent effect

`C1=CCC(c2cccnc2)NC1` (stereo unspecified) gave a clearance [1] of 8.11 mL/min/kg, an AUC [2] of 637 ng·h/mL and a CL/F [3] of 8.11 mL/min/kg. The Cmax [4] was 20 ng/mL, the Activity (Mus musculus [5]) was “Active” and the AUC [6] was 2730 ng·h/mL. For the same compound, the AUC [7] was 3060 ng·h/mL, the Cmax [8] was 1180 ng/mL and the Tmax [9] was 9.6 min. It also gave a Drug uptake [10] of 25 µg/L, a Tmax [11] of 1.8 min and a half-life [12] of 21.6 min. The Activity (Mus musculus [13]) was “Dde”, the half-life [14] was 238 min and the Activity [15] was 0.6. For the same compound, the AUC [16] was 430 ng·h/mL, the Activity (Mus musculus [17]) was “Active” and the Drug uptake [18] was 50.6 ng/mL. For the same compound, the Activity (Rattus norvegicus [19]) was 39.6%, the Activity (Rattus norvegicus [20]) was “Active” and the CL/F [21] was 78.6 mL/min/kg. The Activity [22] was 1.1, the F [23] was 100% and the Cp [24] was 1202.5 ng/mL. For the same compound, the concentration at 1 h [25] was 5.34 ng/mL, the Drug uptake [26] was 2.5 µg/L and the CL [27] was 0.00811 mL/min/kg. The Vd [28] was 1.23 L/kg, the Activity (Mus musculus [29]) was “Active” and the Activity (Mus musculus [30]) was “Active”. The Kp [31] was 2.5, the Activity (Rattus norvegicus [32]) was 46.1% and the Cmax [33] was 2730 ng/mL. For the same compound, the half-life [34] was 230 min, the Activity (Mus musculus [35]) was “Active” and the Activity (Mus musculus [36]) was “Dde”.
